Measured values from paper PMC6128652, “Structure of the Cladosporium fulvum Avr4 effector in complex with (GlcNAc)6 reveals the ligand-binding mechanism and uncouples its intrinsic function from recognition by the Cf-4 resistance protein” (PLoS Pathogens, 2018).
Positions count from the first letter of the chain named.

Assays:
Settings in all cases: n = 3
[1] = target: T1, D94A (Fulvia fulva, UniProt Q00363, D94A); experiment: Isothermal titration calorimetry, (GlcNAc)6 titrated into protein in 10 mM Bis-Tris, pH 6.5, 100 mM NaCl, individual binding site model; temperature not given.
T1 construct: gene AVR4; true mature form Lys30-Gln115, E. coli Rosetta-gami B
T1 sequence (Q00363 30-115 D94A): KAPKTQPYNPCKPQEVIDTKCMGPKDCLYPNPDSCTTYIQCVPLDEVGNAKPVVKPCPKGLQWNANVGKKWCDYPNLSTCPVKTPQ
Method: (§1) All ITC experiments were performed on a TA Instruments low volume NanoITC with a 186uL reaction cell and a reference cell filled with degassed Milli-Q grade water. Reactions were run in a buffer containing 10mM Bis-Tris, pH 6.5, 100 mM NaCl. The reservoir solution was filled with protein solution and continuously stirred while Chitin hexasaccharide solutions titrated in 2.5μL aliquots for 19 injections, with an initial 1μL injection, for a total injection volume of 48.5μL. The carbohydrate solutions were made by dissolving the dry powder in buffer to a concentration of 20mM (confirmed using methods described above) and then diluted to the working concentration using the final buffer exchange flow through to match the buffers as closely as possible. The integrated heats, after correction for the heat of dilution were analyzed using the NanoAnalyze software from […]. An individual binding site model was used to fit the binding isotherm. All experiments were replicated a minimum of three times.
(§2) The parameters remained similar irrespectively of whether or not the purification tag was removed from the protein or whether a reverse titration was run, in which concentrated CfAvr4 was titrated into a dilute solution of (GlcNAc)6, with no evidence of allosteric or dimer dissociation (S2 Table and S6 Fig). The values are also in good agreement with previously reported data except for the stoichiometric ratio [9]. […] Due to this discrepancy, we took great care to verify the concentration of CfAvr4 using a Bradford assay, and quantitated the carbohydrate concentration.
(§3) A stock solution of the monomer of N-acetylglucosamine was prepared by dissolving the dry powder in a buffer containing 10 mM Bis-Tris, pH 6.5, 100 mM NaCl to a concentration of 0.100 g/L using analytic techniques. Standard solution of 0, 0.010, 0.025, 0.050, 0.075 g/L were prepared by serial dilutions. Using glass test tubes and pipets, 100 μL of each standard was mixed with 300μL of concentrated sulfuric acid and vortexed for 10 sec to mix. Solutions were incubated at RT for 10 min and then placed on ice to stop the reaction. […] Analytically prepared solution of the di- and tri-saccharide scaled linearly to the calibration curve. To determine the concentration of the chitin hexasaccharide solutions used in ITC, the solutions were diluted into the dynamic range of the calibration curve (S12 Fig) and subjected to the above procedure.

[2] = target: T2, K84A (Fulvia fulva, UniProt Q00363, K84A); experiment: as above
T2 construct: gene AVR4; true mature form Lys30-Gln115, E. coli Rosetta-gami B
T2 sequence (Q00363 30-115 K84A): T1 sequence (Q00363 30-115 D94A) with K55A, A65D
Method: as §1, §2, §3

[3] = target: T3, M51A (Fulvia fulva, UniProt Q00363, M51A); experiment: as above
T3 construct: gene AVR4; true mature form Lys30-Gln115, E. coli Rosetta-gami B
T3 sequence (Q00363 30-115 M51A): T1 sequence (Q00363 30-115 D94A) with M22A, A65D
Method: as §1, §2, §3

[4] = target: T4, N93A (Fulvia fulva, UniProt Q00363, N93A); experiment: as above
T4 construct: gene AVR4; true mature form Lys30-Gln115, E. coli Rosetta-gami B
T4 sequence (Q00363 30-115 N93A): T1 sequence (Q00363 30-115 D94A) with N64A, A65D
Method: as §1, §2, §3

[5] = target: T5, N95A (Fulvia fulva, UniProt Q00363, N95A); experiment: as above
T5 construct: gene AVR4; true mature form Lys30-Gln115, E. coli Rosetta-gami B
T5 sequence (Q00363 30-115 N95A): T1 sequence (Q00363 30-115 D94A) with A65D, N66A
Method: as §1, §2, §3

[6] = target: T6, P53A (Fulvia fulva, UniProt Q00363, P53A); experiment: as above
T6 construct: gene AVR4; true mature form Lys30-Gln115, E. coli Rosetta-gami B
T6 sequence (Q00363 30-115 P53A): T1 sequence (Q00363 30-115 D94A) with P24A, A65D
Method: as §1, §2, §3

[7] = target: T7, P87A (Fulvia fulva, UniProt Q00363, P87A); experiment: as above
T7 construct: gene AVR4; true mature form Lys30-Gln115, E. coli Rosetta-gami B
T7 sequence (Q00363 30-115 P87A): T1 sequence (Q00363 30-115 D94A) with P58A, A65D
Method: as §1, §2, §3

[8] = target: T8, Q69N (Fulvia fulva, UniProt Q00363, Q69N); experiment: as above
T8 construct: gene AVR4; true mature form Lys30-Gln115, E. coli Rosetta-gami B
T8 sequence (Q00363 30-115 Q69N): T1 sequence (Q00363 30-115 D94A) with Q40N, A65D
Method: as §1, §2, §3

[9] = target: T9, WT-CfAvr4 (Fulvia fulva, UniProt Q00363); experiment: as above
T9 construct: gene AVR4; true mature form Lys30-Gln115, N-terminal two 6x His tags and rhinovirus 3C site (tag retained, by contrast with the w/o tag row), E. coli Rosetta-gami B
T9 sequence (Q00363 30-115): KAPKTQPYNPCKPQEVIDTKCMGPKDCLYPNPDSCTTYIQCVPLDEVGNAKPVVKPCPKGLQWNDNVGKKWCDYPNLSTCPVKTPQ
Method: as §1, §2, §3

[10] = target: T10, WT-CfAvr4 w/o tag (Fulvia fulva, UniProt Q00363); experiment: as above
T10 construct: gene AVR4; true mature form Lys30-Gln115, purification tag removed with rhinovirus 3C protease, E. coli Rosetta-gami B
T10 sequence (Q00363 30-115): as above
Method: as §1, §2, §3

[11] = target: T11, Y103F (Fulvia fulva, UniProt Q00363, Y103F); experiment: as above
T11 construct: gene AVR4; true mature form Lys30-Gln115, E. coli Rosetta-gami B
T11 sequence (Q00363 30-115 Y103F): T1 sequence (Q00363 30-115 D94A) with A65D, Y74F
Method: as §1, §2, §3

[12] = target: T12, Y67F (Fulvia fulva, UniProt Q00363, Y67F); experiment: as above
T12 construct: gene AVR4; true mature form Lys30-Gln115, E. coli Rosetta-gami B
T12 sequence (Q00363 30-115 Y67F): T1 sequence (Q00363 30-115 D94A) with Y38F, A65D
Method: as §1, §2, §3

[13] = target: T9, WT-CfAvr4; experiment: Isothermal titration calorimetry, reverse titration with concentrated CfAvr4 titrated into dilute (GlcNAc)6, 10 mM Bis-Tris, pH 6.5, 100 mM NaCl; temperature not given.; type: binding
Description: as §2
All ITC experiments were performed on a TA Instruments low volume NanoITC with a 186uL reaction cell and a reference cell filled with degassed Milli-Q grade water. Reactions were run in a buffer containing 10mM Bis-Tris, pH 6.5, 100 mM NaCl. The reservoir solution was filled with protein solution and continuously stirred while Chitin hexasaccharide solutions titrated in 2.5μL aliquots for 19 injections, with an initial 1μL injection, for a total injection volume of 48.5μL. […] The integrated heats, after correction for the heat of dilution were analyzed using the NanoAnalyze software from ITC Technologies. […]

CC(=O)N[C@H]1[C@H](O[C@H]2[C@H](O)[C@@H](NC(C)=O)[C@H](O[C@H]3[C@H](O)[C@@H](NC(C)=O)C(O)O[C@@H]3CO)O[C@@H]2CO)O[C@H](CO)[C@@H](O[C@@H]2O[C@H](CO)[C@@H](O[C@@H]3O[C@H](CO)[C@@H](O[C@@H]4O[C@H](CO)[C@@H](O)[C@H](O)[C@H]4NC(C)=O)[C@H](O)[C@H]3NC(C)=O)[C@H](O)[C@H]2NC(C)=O)[C@@H]1O (stereo partly drawn) [(GlcNAc)6, chitohexaose (chitin hexasaccharide, beta-1,4-linked N-acetylglucosamine hexamer)]
Kd [1]: 37.6 µM | Kd [2]: 121 µM | Kd [3]: 9.2 µM | Kd [4]: 44.7 µM | Kd [5]: 18.8 µM | Kd [6]: 11.3 µM | Kd [7]: 17.9 µM | Kd [8]: 131 µM | Kd [9]: 7.63 µM | Kd [10]: 6.73 µM | Kd [11]: 12.2 µM | Kd [12]: 6.86 µM | Kd [13]: 7.16 µM
